This note sets out measurements from PMC5021948, “Amyloidogenic amyloid-β-peptide variants induce microbial agglutination and exert antimicrobial activity” (Scientific Reports, 2016).

Series [1] has as its system E. faecalis, E. coli, S. aureus, L. monocytogenes and C. albicans. The series can be described thus: Gram staining, microbial agglutination. The conditions noted are these: 50 μg/ml, 6 h (20 h for C. albicans). The series is classed as cell-based. How it is done:
(§1) Enterococcus faecalis (ATCC 29212), Listeria monocytogenes (VA 15110/93), Escherichia coli (DH5α) and Staphylococcus aureus (ATCC 25923) were grown aerobically on blood agar plates. Candida albicans (ATCC 10231) was plated on Sabouraud dextrose agar plates. E. coli, S. aureus and C. albicans were cultured at 37 °C; E. faecalis and L. monocytogenes were cultured at 37 °C with an additional 5% CO2. Before the experiments, the organisms were subcultured to generate mid-logarithmic growth cultures for use as inoculates. Colonies from the agar were transferred using a sterile loop to Mueller-Hinton broth (Roth, Karlsruhe, Germany) and incubated for 100 min at 39 °C to achieve a McFarland density of 0.5. The C. albicans and bacterial inocula were normalized in Mueller-Hinton broth to 5 × 10^5 cells/ml immediately before use. For the experiments, an inoculum of 5 × 10^5 cells/ml was dispensed into 96-well plates containing Mueller-Hinton broth growth medium with Aβ peptides, as indicated below.
The same cultures analysed by flow cytometry were used for the gram staining. After incubating the bacteria and C. albicans with the peptides, 10 μl of the cell suspensions were air-dried on microscope slides and flame-fixated. The smears were flooded with crystal violet solution for 2 min. The slides were rinsed and then incubated for 2 min with iodine solution. […]

The test system is the same in series [2]. In words: Flow cytometry of damaged microorganisms (increased autofluorescence / reduced forward scatter). The series is classed as cell-based. The conditions noted are these: 25 or 50 μg/ml, 6 h bacteria, 20 h C. albicans. How it is done: as §1, with “below. […]” for “below.”
After 6 h of incubation for bacteria and 20 h for C. albicans, 50 μl of the cell suspension was diluted in 1% paraformaldehyde (Sigma-Aldrich, Munich, Germany) and stained with DAPI (Sigma-Aldrich, Munich, Germany). Flow cytometry analysis was performed using a Gallios Cytometer (Beckman Coulter, Krefeld, Germany), and the results were evaluated using Kaluza® software (Beckman & Coulter, Krefeld, Germany). Experiments were repeated at least three times for each organism, and duplicates were included for each assay condition. Cultures treated with antibiotics, Mueller-Hinton broth without cells and untreated cells served as controls. Viability was assessed based on the increase in autofluorescence and reduction of forward scatter as signs of microbial damage.

Series [3] concerns E. faecalis. The series can be described thus: Scanning electron microscopy. The series is classed as cell-based, Enterococcus faecalis. The note with it: 50 μg/ml, 6 h. From the text:
The specimens were attached to aluminum holders and sputtered with platinum in 15-nm layers using a LEICA EM SCD-500 (Leica, Wetzlar, Germany). The surface morphology of the platinum sputter-coated samples was investigated using a JSM 6 610 scanning electron microscope (JEOL, Peabody, MA, USA) at a working distance of 10 mm and an acceleration voltage of 10 kV at room temperature.

In a further series the test system is C. albicans. In words: Proliferation by turbidimetry at 570 nm. The format is cell-based, Candida albicans. The conditions noted are these: 3.13 or 6.25 μg/ml, 20 h (Fig. 5 legend: 24 h), 37 °C. How it is done: as §1
An inoculum of 5 × 10^5 cells/ml was dispensed into 96-well plates containing Mueller-Hinton broth growth medium and 3.13 μg/ml or 6.25 μg/ml Aβ-peptides or LL-37 (Anaspec, Fremont, CA, USA). […] The resulting absorbance was measured with a SpectraMax 340 PC 384 microplate reader (Molecular Devices, Biberach, Germany). The proliferation of C. albicans was assessed by measuring turbidity at 570 nm.

For the next series, the system named is S. aureus. In words: Automated quantification of cell aggregation on immunocytochemistry slides. The series is classed as cell-based, Staphylococcus aureus. The conditions noted are these: 50 μg/ml, 6 h. How it is done:
(§2) The immunocytochemistry of E. faecalis and S. aureus was examined using the Gram preparations specified above. To achieve the robust adherence of pathogens on the glass slides during the staining procedure, cells were incubated with 2% paraformaldehyde (Sigma-Aldrich, Munich, Germany) on the slides and air dried for 60 min at room temperature, followed by washing with PBS (Biochrom, Berlin, Germany). […]
(§3) All images were visually quality controlled. […] An automated quantitative phenotypic image analysis was performed using a custom-adapted version of the image analysis software DetecTiff. Pericellular Aβ peptide levels were quantified from the AF488 channel within donut-shaped masks (see Fig. 1B), which were generated from the DAPI channel in a three-step procedure. […] The Aβ peptide level in an individual cell was calculated as the arithmetic mean of all pixel values within the area of a donut-shaped mask and reported as the mean pixel intensity. Cell aggregation was quantified in an automated manner from segmented images of DAPI-stained nuclei by counting the number of bacteria adjacent to a selected individual bacterium within a rectangular 50-pixel[2] region.

The test system of series [4] is E. faecalis. Described as above. The conditions noted are these: 50 μg/ml, 6 h. The format is cell-based, Enterococcus faecalis. The protocol:
as §2, §3

The subject of series [5] is Candida albicans (ATCC 10231). The series can be described thus: Colony forming units after plating Aβ-treated cultures. The format is cell-based. The conditions noted are these: 50 μg/ml peptide. The protocol:
as §1
(§4) Immediately before the experiments, all peptides were diluted in Mueller-Hinton broth to reach a final concentration of 100 μg/ml.
(§5) The viability of E. faecalis, E. coli and C. albicans was further examined by plating Aβ-treated cultures on agar plates. Cultures of E. coli, E. faecalis and C. albicans were prepared as described above. After incubation with 50 μg/ml Aβ1-40, Aβ1-42 or Aβ3p-42 for 6 h for bacteria and 20 h for C. albicans, the cell suspensions were diluted in Mueller-Hinton broth, and the microbial load was determined using an Eddy Jet Spiral Plater (IUL Instruments, Germany) by depositing 50 μl of sample on a rotating agar plate. Bacteria were grown on Mueller-Hinton agar plates, and C. albicans was grown on Sabouraud dextrose agar plates. After 24 h of incubation, colonies were counted and translated to colony-forming units (CFU)/ml.

The next series deals with Escherichia coli (DH5α). The description is as above. The format is cell-based. The conditions noted are these: 50 μg/ml peptide, 6 h, Mueller-Hinton broth, inoculum 5 × 10^5 cells/ml, spiral plated, colonies counted after 24 h. How it is done:
as §1, §4, §5

Series [6] concerns Enterococcus faecalis (ATCC 29212). The series is described as above. The format is cell-based. The conditions noted are these: 50 μg/ml peptide, 6 h, Mueller-Hinton broth, inoculum 5 × 10^5 cells/ml, spiral plated, colonies counted after 24 h. How it is done: as §1, §4, §5
Series [7] relates to surfaces of E. faecalis and S. aureus. The series can be described thus: Immunocytochemistry (6E10), Aβ peptide bound to microbial surface. The series is classed as binding. The conditions noted are these: 50 μg/ml, 6 h, 6E10 antibody, mean pixel intensity in donut-shaped masks.
The nature of series [8]: Thioflavin T assay of Aβ peptide aggregation. The series is classed as physicochemical. The conditions noted are these: 160 μg/ml in PBS/0.4% NH4OH, 0.2 mM Thioflavin T, 37 °C, 6 h, Ex 450/Em 484 nm; with heat inactivated E. coli, S. aureus or C. albicans (McFarland 0.5) versus PBS alone or 0.5 μm carboxylated microbeads. How it is done: Thioflavin T was used to monitor the aggregation of Aβ1-42 in the presence of microorganisms. In a black 96-well plate, 160 μg/ml of Aβ1-42 in PBS/0.4% NH4OH were mixed with heat inactivated E. coli, S. aureus or C. albicans at a final density of McFarland 0.5. Leaving away the microorganisms or adding 10 μg/ml carboxylated microbeads (Micromod, Rostock, Germany) with a diameter of 0.5 μm served as control. After adding Thioflavin T (Sigma-Aldrich, Munich, Germany) in final concentration of 0.2 mM, kinetic measurement was performed at 37 °C with excitation at 450 nm and emission at 484 nm in a CLARIOstar® microplate reader (BMG labtech, Ortenberg, Germany). Measurements containing the respective microorganisms but no Aβ1-42 served as blank.

As to “Aβ1-40: non-amyloidogenic amyloid-β peptide variant ending at position 40 (Anaspec)”, in series [1], the “microbial agglutination in Gram stains” value is “Neither Aβ1-40 nor Aβ2-40 induced microbial agglutination”. Moreover, the “antimicrobial / microbicidal activity by flow cytometry” value (from here on “antimicrobial / microbicidal activity”) in series [2] was “No microbicidal activity was observed”. Further, the “aggregates of bacteria in scanning electron microscopy” value in the series with E. faecalis [3] was “Only minor aggregates”. In addition, in the series with C. albicans, the “proliferation of C. albicans (turbidity)” value is recorded as “miss the cytotoxic effect”. Also, the “agglutination of bacteria (number of cells around each bacterium)” value with S. aureus and in the series with E. faecalis [4] was “almost no agglutination” each time. In addition, the “antimicrobial effect in culture (colony forming units)” value in [5] (20 h) is listed as “moderate antimicrobial effect”. For the same substance, the “reduction of the number of colony forming units compared to untreated cultures” value (with Escherichia coli (DH5α); in series [6]) was “not reduced” in each case.
With “Aβ1-42: amyloidogenic amyloid-β peptide variant ending at position 42 (Anaspec)”, the “antimicrobial / microbicidal activity” value in series [2] is “exerted antimicrobial activity”. The “damaged microorganisms (reduced forward scatter and increased autofluorescence, AF+/FSC−), share of cells” value in series [2] (DAPI-positive events) is recorded as “up to 70%”. In series [7], the “binding of Aβ peptide to microbial surfaces” value is “bound to microbial surfaces”. Moreover, the “agglutination (aggregation) of the peptide, Thioflavin fluorescence over time” value in series [8] is “more rapid increase in Thioflavin fluorescence”. Besides, the “agglutination of bacteria (number of cells around each bacterium)” value in the series with S. aureus and in the series on E. faecalis [4] was “led to agglutination” throughout. Besides, the “reduction of the number of colony forming units” value in [5] (20 h (Fig. 5 legend: 24 h), Sabouraud dextrose agar, colonies counted after 24 h) is reported as 85%. For the same substance, the “reduction of the number of colony forming units compared to untreated cultures” value (in the series on Escherichia coli (DH5α); in [6]) was 50% throughout.
Take “Aβ2-40: non-amyloidogenic, N-terminally truncated amyloid-β peptide variant ending at position 40 (Anaspec)”: the “microbial agglutination in Gram stains” value in series [1] is given as “Neither Aβ1-40 nor Aβ2-40 induced microbial agglutination”. For the same substance, the “antimicrobial / microbicidal activity” value in series [2] is “No microbicidal activity was observed”. For the same substance, the “aggregates of bacteria in scanning electron microscopy” value in the series with E. faecalis [3] is “larger aggregates of bacteria that retained their vital morphology”. Moreover, in the series on C. albicans, the “proliferation of C. albicans (turbidity)” value is given as “miss the cytotoxic effect”.
